The source of these data is ChEMBL document CHEMBL5291721, “A preclinical secondary pharmacology resource illuminates target-adverse drug reaction associations of marketed drugs” (Nat Commun, 2023).

A word on the AC50: it is the concentration at which the activity in the assay is half-maximal. Low values mean greater potency, high ones weaker potency.

Assay [1] addresses Adenosine receptor A2a (Homo sapiens, UniProt P29274).
Assay [2] addresses T1, Alpha-2A adrenergic receptor (Homo sapiens, UniProt P08913).
T1 sequence (P08913 whole entry): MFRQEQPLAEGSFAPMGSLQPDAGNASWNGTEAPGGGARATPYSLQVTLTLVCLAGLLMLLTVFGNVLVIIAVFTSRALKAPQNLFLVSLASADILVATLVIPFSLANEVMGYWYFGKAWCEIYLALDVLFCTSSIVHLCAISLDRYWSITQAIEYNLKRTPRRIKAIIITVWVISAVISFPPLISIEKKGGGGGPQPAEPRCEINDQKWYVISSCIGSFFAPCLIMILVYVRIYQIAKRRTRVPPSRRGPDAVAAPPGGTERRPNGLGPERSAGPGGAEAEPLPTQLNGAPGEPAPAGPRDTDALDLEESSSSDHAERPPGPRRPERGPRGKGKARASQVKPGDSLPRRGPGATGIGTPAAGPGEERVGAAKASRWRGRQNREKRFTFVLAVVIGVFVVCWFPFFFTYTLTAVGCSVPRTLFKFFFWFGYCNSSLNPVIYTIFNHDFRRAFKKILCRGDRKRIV
In kind it is functional, cell-based.

Assay [3] deals with T2, Type-1 angiotensin II receptor (Homo sapiens, UniProt P30556).
T2 sequence (P30556 whole entry): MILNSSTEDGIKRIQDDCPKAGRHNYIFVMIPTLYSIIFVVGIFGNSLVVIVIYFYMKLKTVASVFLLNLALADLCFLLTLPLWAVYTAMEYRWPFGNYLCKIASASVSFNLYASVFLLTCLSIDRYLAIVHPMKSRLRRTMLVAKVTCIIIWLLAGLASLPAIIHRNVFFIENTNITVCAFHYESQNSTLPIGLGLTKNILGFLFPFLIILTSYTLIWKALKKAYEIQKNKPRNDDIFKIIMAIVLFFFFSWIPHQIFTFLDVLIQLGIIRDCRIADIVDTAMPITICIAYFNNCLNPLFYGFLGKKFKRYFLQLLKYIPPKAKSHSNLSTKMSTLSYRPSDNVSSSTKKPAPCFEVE

Assay [4] deals with Vasopressin V1a receptor (Homo sapiens, UniProt P37288).
In assay [5] the target is Gamma-aminobutyric acid receptor subunit alpha-1 (Rattus norvegicus, UniProt P62813). In kind it is functional.
Assay [6] concerns the target Histamine H2 receptor (Homo sapiens, UniProt P25021). In kind it is functional, cell-based.
For assay [7], the target named is Motilin receptor (Homo sapiens, UniProt O43193).
Assay [8] deals with T3, Progesterone receptor (Homo sapiens, UniProt P06401).
T3 sequence (P06401 whole entry): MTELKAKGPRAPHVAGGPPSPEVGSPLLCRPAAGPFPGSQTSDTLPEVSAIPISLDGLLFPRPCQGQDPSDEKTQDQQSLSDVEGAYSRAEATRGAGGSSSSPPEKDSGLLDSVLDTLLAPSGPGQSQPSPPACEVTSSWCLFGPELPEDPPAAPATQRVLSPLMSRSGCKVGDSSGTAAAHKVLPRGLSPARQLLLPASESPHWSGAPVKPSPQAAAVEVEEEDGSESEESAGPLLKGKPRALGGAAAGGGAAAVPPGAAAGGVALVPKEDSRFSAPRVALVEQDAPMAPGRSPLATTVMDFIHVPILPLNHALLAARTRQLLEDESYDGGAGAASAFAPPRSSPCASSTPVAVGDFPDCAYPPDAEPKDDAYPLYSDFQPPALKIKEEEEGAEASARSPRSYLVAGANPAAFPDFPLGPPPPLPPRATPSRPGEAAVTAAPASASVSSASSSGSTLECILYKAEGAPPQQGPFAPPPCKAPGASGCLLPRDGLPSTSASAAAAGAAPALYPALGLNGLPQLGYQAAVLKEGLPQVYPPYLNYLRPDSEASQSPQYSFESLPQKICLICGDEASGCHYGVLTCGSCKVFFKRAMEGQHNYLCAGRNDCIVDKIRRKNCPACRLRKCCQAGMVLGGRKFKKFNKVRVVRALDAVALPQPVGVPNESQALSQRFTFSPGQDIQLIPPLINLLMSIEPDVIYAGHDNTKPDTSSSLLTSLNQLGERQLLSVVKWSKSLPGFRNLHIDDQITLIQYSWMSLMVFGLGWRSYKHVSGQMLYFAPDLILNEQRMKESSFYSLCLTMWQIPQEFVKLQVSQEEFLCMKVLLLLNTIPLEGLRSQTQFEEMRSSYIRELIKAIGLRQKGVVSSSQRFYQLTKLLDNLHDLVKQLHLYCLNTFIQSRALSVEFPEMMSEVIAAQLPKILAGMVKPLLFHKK
In kind it is functional.

For assay [9], the target named is T3, Progesterone receptor. Format: functional. This is another data set of the same source.
Further: assay procedure not described here.

Chain of Adenosine receptor A2a (P29274 whole entry): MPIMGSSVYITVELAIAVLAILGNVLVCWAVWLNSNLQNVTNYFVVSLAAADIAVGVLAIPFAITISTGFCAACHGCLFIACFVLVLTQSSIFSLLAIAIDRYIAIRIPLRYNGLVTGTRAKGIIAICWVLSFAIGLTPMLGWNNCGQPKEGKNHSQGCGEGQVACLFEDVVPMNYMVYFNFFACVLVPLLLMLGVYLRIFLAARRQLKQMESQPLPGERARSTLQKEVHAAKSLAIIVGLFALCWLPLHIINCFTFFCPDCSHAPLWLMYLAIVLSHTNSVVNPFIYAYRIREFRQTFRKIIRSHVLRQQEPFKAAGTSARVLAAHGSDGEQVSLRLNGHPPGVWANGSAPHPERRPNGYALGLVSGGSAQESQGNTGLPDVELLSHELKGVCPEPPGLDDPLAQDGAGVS
Chain of Motilin receptor (O43193 whole entry): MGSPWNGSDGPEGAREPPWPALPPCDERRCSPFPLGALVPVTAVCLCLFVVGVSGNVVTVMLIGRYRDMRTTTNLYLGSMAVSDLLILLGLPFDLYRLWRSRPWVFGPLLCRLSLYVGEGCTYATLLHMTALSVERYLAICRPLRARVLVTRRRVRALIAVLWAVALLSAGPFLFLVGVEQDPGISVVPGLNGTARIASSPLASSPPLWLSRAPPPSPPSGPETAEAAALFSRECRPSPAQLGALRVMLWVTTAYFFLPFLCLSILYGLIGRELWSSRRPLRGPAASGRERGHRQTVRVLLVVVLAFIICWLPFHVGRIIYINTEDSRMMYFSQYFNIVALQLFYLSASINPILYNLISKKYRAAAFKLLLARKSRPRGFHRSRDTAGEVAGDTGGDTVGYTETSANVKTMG
Chain of Vasopressin V1a receptor (P37288 whole entry): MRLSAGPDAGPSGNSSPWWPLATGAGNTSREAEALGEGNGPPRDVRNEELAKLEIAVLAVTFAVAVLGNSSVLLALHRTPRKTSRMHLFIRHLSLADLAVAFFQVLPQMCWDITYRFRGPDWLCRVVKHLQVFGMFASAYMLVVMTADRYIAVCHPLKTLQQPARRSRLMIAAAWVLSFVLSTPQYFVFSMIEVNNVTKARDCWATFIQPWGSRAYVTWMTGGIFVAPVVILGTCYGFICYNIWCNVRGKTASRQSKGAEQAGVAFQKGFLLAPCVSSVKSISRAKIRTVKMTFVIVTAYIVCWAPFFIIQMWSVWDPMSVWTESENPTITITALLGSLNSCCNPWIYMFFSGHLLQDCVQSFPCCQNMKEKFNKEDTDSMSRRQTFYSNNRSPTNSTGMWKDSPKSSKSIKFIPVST
Chain of Histamine H2 receptor (P25021 whole entry): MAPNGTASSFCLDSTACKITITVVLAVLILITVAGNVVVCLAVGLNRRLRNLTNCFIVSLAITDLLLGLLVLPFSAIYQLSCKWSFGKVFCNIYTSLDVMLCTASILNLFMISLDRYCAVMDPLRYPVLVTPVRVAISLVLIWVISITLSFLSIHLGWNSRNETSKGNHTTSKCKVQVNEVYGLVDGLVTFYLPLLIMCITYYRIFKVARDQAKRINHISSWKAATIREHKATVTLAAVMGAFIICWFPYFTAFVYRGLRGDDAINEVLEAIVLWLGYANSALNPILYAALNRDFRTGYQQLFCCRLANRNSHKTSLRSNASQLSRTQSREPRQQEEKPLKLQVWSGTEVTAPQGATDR
Chain of Gamma-aminobutyric acid receptor subunit alpha-1 (P62813 whole entry): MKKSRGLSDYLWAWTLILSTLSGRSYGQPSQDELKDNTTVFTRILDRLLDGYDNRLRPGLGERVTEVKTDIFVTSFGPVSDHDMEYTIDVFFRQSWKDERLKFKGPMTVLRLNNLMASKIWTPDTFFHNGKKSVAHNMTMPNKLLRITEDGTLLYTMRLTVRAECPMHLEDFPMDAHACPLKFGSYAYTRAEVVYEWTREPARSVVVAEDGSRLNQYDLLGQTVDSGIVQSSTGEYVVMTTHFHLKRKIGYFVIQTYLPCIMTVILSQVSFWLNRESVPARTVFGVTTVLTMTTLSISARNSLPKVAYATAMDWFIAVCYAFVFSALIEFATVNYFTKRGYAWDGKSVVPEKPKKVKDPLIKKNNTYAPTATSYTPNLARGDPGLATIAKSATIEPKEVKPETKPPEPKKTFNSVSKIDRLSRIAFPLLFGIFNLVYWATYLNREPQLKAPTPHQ

For `CC(=O)c1ccc(S(=O)(=O)NC(=O)NC2CCCCC2)cc1` [ACETOHEXAMIDE], the AC50 is over 10 µM in assay [1]; over 30 µM in assay [2]; over 10 µM in assay [3]; over 10 µM in [4]; over 10 µM in [5]; over 10 µM in [6]. For the same molecule, the AC50 in assay [7], in [8] and in assay [9] was over 10 µM in each case.
With `COc1cc(C)c(/C=C/C(C)=C/C=C/C(C)=C/C(=O)O)c(C)c1C` [ACITRETIN], the AC50 in assay [1], in [2], in assay [3], in assay [4], in [5] and in assay [6] was over 10 µM in each case. The AC50 in [7] was over 10 µM; in assay [8], over 30 µM; in assay [9], over 30 µM.
As for `CCC1(CCC(C)C)C(=O)NC(=O)NC1=O` [AMOBARBITAL], the AC50 in assay [1], in assay [2], in assay [3], in assay [5], in assay [6] and in [7] was over 10 µM in each case. In addition, the AC50 in assay [8] and in [9] was over 10 µM each time.
As to `COc1ccc(C2C(=O)c3ccccc3C2=O)cc1` [ANISINDIONE], the AC50 in [1] was over 10 µM; in [2], over 10 µM; in [3], over 10 µM; in assay [5], over 10 µM; in [6], over 30 µM; in [7], over 10 µM. The AC50 in assay [8] and in assay [9] was over 30 µM throughout.
With `O=C(O)c1ccc(NC(=O)[C@H](Cc2ccc(O)cc2)NC(=O)c2ccccc2)cc1` [BENTIROMIDE], the AC50 in assay [1], in assay [2], in assay [3], in [4], in assay [5] and in assay [6] was over 10 µM throughout. Also, the AC50 in [7], in assay [8] and in assay [9] was over 10 µM in each case.
Consider `NS(=O)(=O)c1cc2c(cc1Cl)N=C(CSCc1ccccc1)NS2(=O)=O` [BENZTHIAZIDE], for which the AC50 in assay [1] was over 10 µM; in assay [2], over 10 µM; in assay [3], over 10 µM; in assay [4], over 10 µM; in assay [5], over 10 µM; in [6], over 30 µM. The AC50 was over 10 µM in assay [7], over 30 µM in assay [8] and over 30 µM in assay [9].
Consider `CC(C)[C@@H](C)/C=C/[C@@H](C)[C@H]1CC[C@H]2/C(=C/C=C3\C[C@@H](O)CC[C@@H]3C)CCC[C@]12C` [DIHYDROTACHYSTEROL], for which the AC50 in assay [1], in [2], in assay [3], in assay [4], in [5] and in [6] was over 10 µM each time. Also, the AC50 was over 10 µM in assay [7], over 30 µM in assay [8] and 11.2 µM in assay [9].
`CC(=O)[C@H]1CC[C@H]2[C@@H]3C[C@H](C)C4=CC(=O)CC[C@]4(C)[C@H]3[C@@H](O)C[C@]12C` [MEDRYSONE]: the AC50 in [1], in [2], in [3], in assay [4], in assay [5] and in assay [6] was over 10 µM in each case. Further, the AC50 was over 10 µM in assay [7] and 0.0027 µM in assay [8].
On to `CCCC(C)(COC(N)=O)COC(N)=O` [MEPROBAMATE], for which the AC50 in assay [1] was over 10 µM; in assay [2] it was over 10 µM; in assay [3], over 10 µM; in [4], over 10 µM; in [5], over 10 µM; in assay [6] it was over 30 µM. For the same molecule, the AC50 in assay [7], in assay [8] and in assay [9] was over 10 µM in each case.
Consider `COc1ccc2cc(CCC(C)=O)ccc2c1` [NABUMETONE], for which the AC50 is over 10 µM in assay [1]; over 10 µM in assay [2]; over 10 µM in assay [3]; over 10 µM in assay [5]; over 30 µM in assay [6]; over 10 µM in assay [7]. Besides, the AC50 in assay [8] and in assay [9] was over 10 µM in each case.
Consider `O=C(c1cc(Cc2n[nH]c(=O)c3ccccc23)ccc1F)N1CCN(C(=O)C2CC2)CC1` [OLAPARIB], for which the concentration at half-maximal activity (AC50) in [1] was over 30 µM; in assay [2], over 10 µM; in assay [3], over 30 µM; in assay [4] it was over 30 µM; in assay [5], over 10 µM; in assay [6] it was over 30 µM. For the same molecule, the half-maximal activity concentration (AC50) in assay [7], in assay [8] and in [9] was over 30 µM each time.
Regarding `CO[C@H]1C[C@H](O[C@H]2CC[C@@]3(C)[C@H](CC[C@@H]4[C@@H]3CC[C@]3(C)[C@@H](C5=CC(=O)OC5)[C@@H](OC(C)=O)C[C@]43O)C2)O[C@@H](C)[C@@H]1O` [OLEANDRIN], the AC50 in assay [2], in assay [5] and in assay [6] was over 30 µM in each case.
As to `NC(=O)NC(=O)Cc1ccccc1` [PHENACEMIDE], the AC50 in assay [1], in [2], in [3], in [5], in assay [6] and in assay [7] was over 10 µM in each case. The AC50 in assay [8] and in assay [9] was over 10 µM throughout.
Turning to `CCCN(CCC)S(=O)(=O)c1ccc(C(=O)O)cc1` [PROBENECID], the AC50 in [1], in assay [2], in assay [3], in assay [5], in assay [6] and in assay [7] was over 10 µM in each case. The AC50 in assay [8] and in assay [9] was over 10 µM each time.
In the case of `CCc1nc(N)nc(N)c1-c1ccc(Cl)cc1` [PYRIMETHAMINE], the AC50 was over 10 µM in [1]; 9.8 µM in [2]; over 10 µM in assay [3]; over 10 µM in [4]; over 10 µM in [5]; over 30 µM in [6]. Moreover, the AC50 in assay [7], in assay [8] and in assay [9] was over 10 µM in each case.
With `Cc1cc(C)nc(NS(=O)(=O)c2ccc(N)cc2)n1` [SULFAMETHAZINE], the AC50 in [1] was over 10 µM; in assay [2] it was over 10 µM; in [3] it was over 10 µM; in assay [5], over 10 µM; in assay [6] it was over 30 µM; in assay [7] it was over 10 µM. Moreover, the AC50 in assay [8] and in assay [9] was over 10 µM throughout.
On to `CCCCCCCC(=O)CC[C@@H]1[C@@H](C/C=C\CCCC(=O)OC(C)C)[C@@H](O)C[C@H]1O` [UNOPROSTONE ISOPROPYL], for which the AC50 in assay [8] is over 30 µM; in [9], 21 µM.
For the molecule `CC(c1cc2ccccc2s1)N(O)C(N)=O` (stereo unspecified) [ZILEUTON], the AC50 in assay [1], in assay [2], in assay [3], in assay [5], in assay [6] and in assay [7] was over 10 µM throughout. Besides, the AC50 in assay [8] and in assay [9] was over 30 µM in each case.
